Here are results for two molecules from patent US8852619B2, “Compositions of dibromomalonamide and their use as biocides” (Dow Global Technologies LLC, priority 2009, dated 2014).

The nature of data set [1]: Growth inhibition assay (microtiter plate-based synergy assay). Format: cell-based. Particulars: 24 hr, read-out: Percent inhibition of growth; for inhibition at 0.2 ppm: 0.20 ppm; for inhibition at 12.5 ppm: 12.50 ppm. The protocol:
(§1) The assay of this Example measures the efficacy of the biocides at preventing growth of a consortium of bacteria in a dilute mineral salts medium. The medium contains (in mg/l) the following components: FeCl3.6H2O (1); CaCl2.2H2O (10); MgSO4.7H2O (22.5); (NH4)2SO4 (40); KH2PO4 (10); K2HPO4 (25.5); Yeast Extract (10); and glucose (100). After all components are added to deionized water, the pH of the medium is adjusted to 7.5. Following filter sterilization, aliquots are dispensed in […] quantities to sterile microtiter plate wells. Dilutions of 2,2-dibromomalonamide (“DBMAL”) and/or “Biocide B” are then added to the microtiter plate. After preparing the combinations of actives as illustrated below, each well is inoculated with 100 μl of a cell suspension containing ca. 1×10^6 cells per milliliter of a mixture of Pseudomonas aeruginosa, Klebsiella pneumoniae, Staphylococcus aureus, and Bacillus subtilis. The final total volume of medium in each well is 300 μl. Once prepared as described herein, the concentration of each active ranges from 25 ppm to 0.195 ppm as illustrated in Table 1. The resulting matrix allows testing of eight concentrations of each active and 64 combinations of actives at varying ratios.
(§2) Controls (not shown) contain the medium with no biocide added. Immediately after the microtiter plates are prepared, the optical density (OD) readings for each well are measured at 600 nm and the plates are then incubated at 37° C. for 24 hr. After the incubation period, the plates are gently agitated before OD values are collected. The OD values at t(0) are subtracted from t(24) values to determine the total amount of growth (or lack thereof) that occurs. These values are used to calculate the percent inhibition of growth caused by the presence of each biocide and each of the 64 combinations.
(§3) where • MDBMAL: Concentration of DBMAL required to inhibit ˜90% of bacterial growth when used in combination with DBNPA. • CDBMAL: Concentration of DBMAL required to inhibit ˜90% of bacterial growth when used alone. • MDBNPA: Concentration of DBNPA required to inhibit ˜90% of bacterial growth when used in combination with DBMAL. • CDBNPA: Concentration of DBNPA required to inhibit ˜90% of bacterial growth when used alone. The SI values are interpreted as follows: • SI<1: Synergistic combination • SI=1: Additive combination • SI>1: Antagonistic combination
(§4) In the Example, the amounts of biocides in the solution are measured in mg per liter of solution (mg/l). Since solution densities are approximately 1.00, the mg/l measurement corresponds to weight ppm. Both units may therefore be used interchangeably in the Examples.

For data set [2], the system named is consortium of bacteria: mixture of Pseudomonas aeruginosa, Klebsiella pneumoniae, Staphylococcus aureus, and Bacillus subtilis. The data set is described as above. Type of data set: cell-based. Particulars: used alone, 24 hr. On the procedure:
as §1, §2, §3, §4

For data set [3] the following is noted: cited from earlier work.

For orientation: inhibition means how much of the control response was suppressed.

Structures are written as SMILES. Like-named read-outs stand apart in the source and are kept apart here.

Turning to `NC(=O)C(Br)(Br)C(N)=O` [DBMAL, 2,2-dibromomalonamide], in data set [1] (DBMAL alone), the inhibition at 0.2 ppm worked out at 0%, the inhibition at 1.56 ppm was 11%, the inhibition at 6.25 ppm stood at 38% and the inhibition at 12.5 ppm was 92%. In data set [1] (DBMAL alone), the inhibition at 25 ppm is 96%.
As for `N#CC(Br)(Br)C(N)=O` [DBNPA, 2,2-dibromo-3-nitrilopropionamide], in data set [1] (DBNPA alone), the inhibition at 0.2 ppm was 0%, the inhibition at 1.56 ppm came out at 75%, the inhibition at 6.25 ppm was 82% and the inhibition at 12.5 ppm came out at 88%. The inhibition at 25 ppm in data set [1] (DBNPA alone) turned out to be 96%. Besides, the inhibition at 0.39 ppm in data set [1] (DBNPA alone, 0.39 ppm) turned out to be 0%. Besides, in data set [1] (DBNPA alone, 0.78 ppm), the inhibition at 0.78 ppm worked out at 0%. Also, in data set [1] (DBNPA alone, 3.13 ppm), the inhibition at 3.13 ppm is 98%. In addition, in data set [2], the “Minimum concentration that caused ~90% inhibition of growth (CDBNPA)” value turned out to be 3.13 mg/L. Further, the “factor of increase of rate of disappearance” value in data set [3] (going from pH 6 to pH 8.9) is reported as “about 450”. Moreover, the “half life (hydrolytic degradation)” value in data set [3] (pH 8) was 2 h. In data set [3] (pH 11.3), the “half life (hydrolytic degradation)” value is 0.00694 h.
